Reference: patent US3993749A, “Rapamycin and process of preparation” (Ayerst McKenna and Harrison Ltd., priority 1975, dated 1976)
Values after ≈ are worked out from the molar mass of the structure shown.

Experiments:
M. gypseum = experiment: minimum inhibitory concentration of rapamycin; type: cell-based, Microsporum gypseum; conditions: Nannizzia gypsea
Source text: (§1) The antifungal activity of this compound is demonstrable in standard tests used for this purpose, for example, in the tests described in "Antiseptics, Disinfectants, Fungicides and Sterilization", G. F. Reddish, Ed., 2nd ed., Lea and Febiger, Philadelphia, 1957 or by D. C. Grove and W. A. Randall in "Assay Methods of Antibiotics", Med. Encycl. Inc., New York 1955.
(§2) h. the minimum inhibitory concentration of rapamycin against various microorganism is listed below: […]

C. catenulata = experiment: minimum inhibitory concentration of rapamycin; type: cell-based
Source text: as §1, §2

C. intermedia = experiment: minimum inhibitory concentration of rapamycin; type: cell-based; conditions: Sungouiella intermedia
Source text: as §1, §2

C. lipolytica = experiment: minimum inhibitory concentration of rapamycin; type: cell-based; conditions: Yarrowia lipolytica
Source text: as §1, §2

C. morrera = experiment: minimum inhibitory concentration of rapamycin; type: cell-based
Source text: as §1, §2

C. parapsilosis = experiment: minimum inhibitory concentration of rapamycin; type: cell-based; conditions: Lodderomyces parapsilosis
Source text: as §1, §2

C. pseudtropicalis = experiment: minimum inhibitory concentration of rapamycin; type: cell-based; conditions: read-out: minimum inhibitory concentration
Source text: as §1, §2

C. stellatoidea = experiment: minimum inhibitory concentration of rapamycin; type: cell-based; conditions: Candida albicans
Source text: as §1, §2

C. tropicalis = experiment: minimum inhibitory concentration of rapamycin; type: cell-based; conditions: Candida tropicalis
Source text: as §1, §2

[1] = tested on: Candida albicans (5 strains); experiment: minimum inhibitory concentration of rapamycin; type: cell-based; conditions: against Candida albicans
Source text: as §1, §2

T. mentagrophytes = experiment: minimum inhibitory concentration of rapamycin; type: cell-based; conditions: Trichophyton mentagrophytes, read-out: minimum inhibitory concentration
Source text: as §1, §2

LD50 in mice = conditions: mouse, in vivo
C. albicans ATCC 11651 = experiment: protection studies in mice infected with C. albicans; type: in vivo
Source text: In protection studies, mice were infected by intravenous injection of C. albicans ATCC 11651. […] At this dose 50% of the mice were protected.

[2] = irritation, intradermal injection into a rabbit's ear; type: in vivo; conditions: 1% suspension (0.2 ml) in water containing […] polysorbate 80, intradermal
Experimental: (§3) A 1% suspension (0.2 ml) of rapamycin in water containing 1.5% polysorbate 80 (Tween 80), when injected intradermally into a rabbit's ear caused no irritation. Similarly, two drops of a 0.5% suspension applied to a rabbit's eye caused no irritation.

[3] = irritation, drops applied to a rabbit's eye; type: in vivo; conditions: two drops of a 0.5% suspension
Experimental: as §3

solubility = type: physicochemical
C. albicans = conditions: prior art; cited from earlier work
[4] = prior art, route not given; cited from earlier work
fungi = conditions: prior art; cited from earlier work
bacteria = conditions: prior art; cited from earlier work
gram positive organisms = conditions: prior art; cited from earlier work
Candida strains = conditions: prior art; cited from earlier work
tumor = conditions: prior art; cited from earlier work

Work on `CO[C@H]1C[C@@H]2CC[C@@H](C)[C@@](O)(O2)C(=O)C(=O)N2CCCC[C@H]2C(=O)O[C@H]([C@H](C)C[C@@H]2CC[C@@H](O)[C@H](OC)C2)CC(=O)[C@H](C)/C=C(\C)[C@@H](O)[C@@H](OC)C(=O)[C@H](C)C[C@H](C)/C=C/C=C/C=C/1C` [Rapamycin, rapamycin] yielded an MIC (M. gypseum) of 12.5 µg/mL (≈ 13.7 µM), an MIC (C. catenulata) of under 0.1 µg/mL and an MIC (C. intermedia) of under 0.1 µg/mL. The MIC (C. lipolytica) was 2.5 µg/mL (≈ 2.73 µM), the MIC (C. morrera) was under 0.1 µg/mL and the MIC (C. parapsilosis) was under 0.1 µg/mL. The MIC (C. pseudtropicalis) was over 5 µg/mL, the MIC (C. stellatoidea) was under 0.1 µg/mL and the MIC (C. tropicalis) was 0.1 µg/mL (≈ 0.109 µM). The inhibitory activity [1] was “especially pronounced”, the MIC (T. mentagrophytes) was over 1000 µg/mL and the LD50 (LD50 in mice; ip) was 597 ± 28.1 mg/kg. The LD50 (LD50 in mice; po) was over 2500 mg/kg, the mice survived (C. albicans ATCC 11651; 10 mg/kg orally) was 4 out of 10 and the mice protected (C. albicans ATCC 11651; 10 mg/kg s.c. at 1, 4 and 24 hours after i.v. infection) was 50%. For the same compound, the protection (C. albicans ATCC 11651; 25 mg/kg orally) was “complete protection”, the protection (C. albicans ATCC 11651; 25 mg/kg s.c.) was “complete protection” and the irritation [2] was “no irritation”. The irritation [3] was “no irritation”, the solubility (solubility; in ether, chloroform, acetone, methanol and dimethylformamide) was “soluble” and the solubility (solubility; in hexane and petroleum ether) was “very sparingly soluble”. For the same compound, the solubility (solubility; in water) was “substantially insoluble”.
In the case of Mycotrienin, the “MIC against C. albicans” value (C. albicans) is given as 5 µg/mL, the LD50 in mice [4] is given as 15 mg/kg and the antifungal activity (fungi) is given as “low antifungal activity”.
In the case of Proticin, the antibacterial activity (bacteria) is listed as “antibacterial” and the antifungal activity (fungi) is listed as “without any antifungal activity”.
In the case of Resistaphylin, the antibacterial activity (bacteria) is listed as “antibacterial” and the antifungal activity (fungi) is listed as “without any antifungal activity”.
In the case of Trienine, the “activity against gram positive organisms” value (gram positive organisms) is listed as “marked activity”, the “activity against Candida strains” value (Candida strains) is listed as “only marginal activity” and the antitumor activity (tumor) is listed as “antitumor activity”.
